Measured values: the supplement of paper PMC8967900

Legend:
Assay in all cases: selective drug sensitivity score (sDSS, relative to normal bone marrow) (sDSS (score)); higher = more potent and effective on the cell line relative to normal bone marrow cells
Settings in all cases: 72 h
MHH-CALL-3 = tested on: MHH-CALL-3
RPMI-8402 = tested on: RPMI-8402
COG-LL-317 = tested on: COG-LL-317
KARPAS-45 = tested on: KARPAS-45
LC4-1 = tested on: LC4-1
CCRF-CEM = tested on: CCRF-CEM
CCRF-HSB2 = tested on: CCRF-HSB2
KASUMI-9 = tested on: KASUMI-9
RCH-ACV = tested on: RCH-ACV
PEER = tested on: PEER
HPB-ALL = tested on: HPB-ALL
JURKAT = tested on: JURKAT
MHH-CALL-2 = tested on: MHH-CALL-2
DND-41 = tested on: DND-41
P30-OHKUBO = tested on: P30-OHKUBO
ALL-SIL = tested on: ALL-SIL
ALL-PO = tested on: ALL-PO
NALL-1 = tested on: NALL-1
HAL-01 = tested on: HAL-01
TANOUE = tested on: TANOUE
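Also: ALL cell lines in 384-well plates, five doses spanning 10,000-fold, each plate scaled between vehicle and 100 µmol/L benzalkonium chloride controls, sDSS an adapted area-under-curve metric.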

SMILES | selective drug sensitivity score (MHH-CALL-3) | selective drug sensitivity score (RPMI-8402) | selective drug sensitivity score (COG-LL-317) | selective drug sensitivity score (KARPAS-45) | selective drug sensitivity score (LC4-1) | selective drug sensitivity score (CCRF-CEM) | selective drug sensitivity score (CCRF-HSB2) | selective drug sensitivity score (KASUMI-9) | selective drug sensitivity score (RCH-ACV) | selective drug sensitivity score (PEER) | selective drug sensitivity score (HPB-ALL) | selective drug sensitivity score (JURKAT) | selective drug sensitivity score (MHH-CALL-2) | selective drug sensitivity score (DND-41) | selective drug sensitivity score (P30-OHKUBO) | selective drug sensitivity score (ALL-SIL) | selective drug sensitivity score (ALL-PO) | selective drug sensitivity score (NALL-1) | selective drug sensitivity score (HAL-01) | selective drug sensitivity score (TANOUE)
CC[C@@]1(O)C(=O)OCc2c1cc1n(c2=O)Cc2cc3c(CN(C)C)c(O)ccc3nc2-1 [Topotecan] (top concentration 10000 nM) | 12.2 | 19.4 | 28 | -0.22 | 21.7 | 21.2 | 23.3 | 18.2 | 19.5 | 10.1 | 11.2 | 15.2 | 26.6 | 21.4 | 18.9 | 24.9 | 17.9 | 20.4 | 20 | -3.62
COc1cccc2c1C(=O)c1c(O)c3c(c(O)c1C2=O)C[C@@](O)(C(=O)CO)C[C@@H]3O[C@H]1C[C@H](N)[C@@H](O)[C@H](C)O1 [Epirubicin] (top concentration 1000 nM) | 14.8 | 6.62 | 17 | -0.28 | 7.62 | 8.02 | 14.8 | 7.62 | 12.9 | -2.98 | 0.12 | 1.02 | 6.12 | -0.58 | 6.92 | 0.42 | -1.78 | -5.28 | -4.28 | -7.88
CO[C@H]1C[C@@H]2CC[C@@H](C)[C@@](O)(O2)C(=O)C(=O)N2CCCC[C@H]2C(=O)O[C@H]([C@H](C)C[C@@H]2CC[C@@H](OCCO)[C@H](OC)C2)CC(=O)[C@H](C)/C=C(\C)[C@@H](O)[C@@H](OC)C(=O)[C@H](C)C[C@H](C)/C=C/C=C/C=C/1C [Everolimus] (top concentration 100 nM) | 3.4 | -0.7 | 2.4 | 0.2 | 3.3 | 5.9 | 4.8 | 10.3 | 16 | 3.2 | -5.3 | -1 | 4.2 | 1.1 | 2 | -0.2 | 8.9 | -5.3 | 2.7 | -5.3
O=c1[nH]c(=O)n([C@H]2C[C@H](O)[C@@H](CO)O2)cc1C(F)(F)F [Trifluridine] (top concentration 10000 nM) | 6.56 | 15.5 | 15.6 | -1.84 | 16 | 14.2 | -1.84 | 6.56 | 15.2 | 7.66 | 4.66 | 9.66 | 9.96 | 9.76 | 11.9 | 13.7 | 20 | 9.76 | 8.76 | -1.84
CC[C@H](CC#N)OC(=O)N[C@@H](C)c1cccc(NC(=O)Nc2ccc(-c3cnco3)c(OC)c2)c1 [AVN944] (top concentration 10000 nM) | 11.1 | 11.9 | 20.6 | 8.84 | 5.34 | 12.1 | 14.5 | 13.5 | 22 | 2.94 | 5.64 | 13.7 | 9.54 | 8.44 | 13.8 | 6.64 | 5.94 | 2.64 | 5.54 | -3.66
CON(C)C(=O)N1N=C(c2cc(F)ccc2F)S[C@@]1(CCCN)c1ccccc1 [Filanesib] (top concentration 1000 nM) | 5.2 | 18.9 | 20.8 | 20.9 | 13.2 | 16.2 | 22.5 | 12.4 | 16.3 | 19.2 | 20.3 | 17.7 | 16.4 | 6.3 | 9.9 | 16.6 | 6.7 | 10.3 | 11.5 | -6.5
Cc1sc2c(c1C)C(c1ccc(Cl)cc1)=N[C@@H](CC(=O)NCCCCNC(=O)COc1cccc3c1C(=O)N(C1CCC(=O)NC1=O)C3=O)c1nnc(C)n1-2 (stereo not given in full) [dBET1] (top concentration 10000 nM) | -1.88 | -6.68 | 2.42 | -7.68 | 5.22 | -3.68 | 2.12 | 2.42 | 0.22 | -4.48 | -12.7 | -11.9 | 4.92 | -0.88 | 2.82 | -7.08 | -5.58 | -11.8 | -14.9 | -17.5
CN(Cc1cnc2nc(N)nc(N)c2n1)c1ccc(C(=O)N[C@@H](CCC(=O)O)C(=O)O)cc1 [Methotrexate] (top concentration 5000 nM) | 10.4 | 20.2 | 9.18 | 11.5 | -0.02 | 13 | 14 | -0.42 | 9.48 | 14.6 | 5.28 | 13.4 | 13.8 | 15 | -0.42 | 15 | -0.12 | 12.7 | 17.1 | 15.3
COc1ccc(-c2ccc3c(N4CCOC[C@@H]4C)nc(N4CCOC[C@@H]4C)nc3n2)cc1CO [AZD8055] (top concentration 10000 nM) | -0.52 | 7.78 | 4.78 | 4.78 | 6.38 | 13.4 | 10.1 | 13.3 | 27.4 | 6.08 | 0.18 | 4.88 | 6.08 | 4.78 | 16.6 | 6.78 | 10.6 | -3.22 | 5.08 | -3.02
CN1CCN(C2CCC(n3cc(-c4ccc(Oc5ccccc5)cc4)c4c(N)ncnc43)CC2)CC1 (stereo not given) (top concentration 10000 nM) | 6.92 | 3.52 | 0.82 | 4.12 | -1.78 | 1.12 | 29.1 | 6.52 | 22.7 | 7.02 | 0.32 | 0.62 | 3.12 | 3.62 | 8.52 | 16.3 | 9.52 | 5.52 | 7.52 | -4.68
